The first assay has as its system IgE antibody present in the serum of a patient (latex-allergic). In words: Latex epitope mapping (2) overlapping 10-residue peptides and (3) alanine/glycine scanning on peptide arrays. It is filed as binding, human. As to conditions: serum of latex-allergic patient P1. The protocol:
On the basis of the sequences (SEQ ID NOs: 5, 25, 35, 68 and 83) of the peptides bound to an IgE antibody in serum in a patient-specific manner as described above in (A), a library of overlapping peptide fragments (length: 10 amino acids) was prepared using the sequences of the peptides and sequences in which sequences were added so as to flank each peptide in the amino acid sequences of allergy components comprising the sequences of the peptide. Epitope mapping was carried out using the library.
The peptides to be synthesized were shifted by one amino acid.
The library was prepared by the same procedure as described above in (A), and the presence or absence of binding of an IgE antibody present in the serum of a patient to each peptide fragment was measured by the same technique as described above. Numeric values determined from images obtained as a result of carrying out only the procedures (1) and (4) to (6) described above in the subsection titled (3) Spotting of cellulose-bound peptide solution were used as control values. The control value of each peptide was subtracted from numeric values determined from images obtained from results about the serum of patients, and the obtained value of the difference was compared with values of the peptides serving as the basis of overlapping.
Chemiluminescence intensity in images obtained by measurement was converted into a numeric value in the same manner as in (A). Numeric values determined from images obtained as a result of carrying out only the procedures (1) and (4) to (6) described above in the subsection titled (3) Spotting of cellulose-bound peptide solution (secondary antibody measurement values) were used as control values. The control value of each peptide was subtracted from numeric values determined from images obtained from results about the serum of patients. When values obtained using the sequences (SEQ ID NOs: 5, 25, 35, 68 and 83) serving as the basis of overlapping were defined as 100%, it was determined that: a peptide having a value of the difference that was less than 30% had no binding activity against IgE antibodies; a peptide having a value of the difference that was 30% or more and less than 50% had binding activity, albeit poor, against IgE antibodies; a peptide having a value of the difference that was 50% or more and less than 70% had binding activity, albeit somewhat poor, against IgE antibodies; and a peptide having a value of the difference that was 70% or more had equivalent or good binding activity against IgE antibodies and was thus a peptide had remaining binding activity against IgE antibodies.
From the amino acid sequences identified above in (A), a library of peptide fragments in which amino-terminal amino acids were substituted one by one by alanine (or glycine when the original amino acid was alanine) according to a technique called alanine/glycine scanning (Non Patent Literature 5) was prepared by the same technique as described above. The presence or absence of binding of an IgE antibody present in the serum of a patient to each peptide fragment was measured by the same technique as described above.
Chemiluminescence intensity in images obtained by measurement was converted into a numeric value in the same manner as in (A). Numeric values determined from images obtained from secondary antibody measurement values were used as control values. The control value of each peptide was subtracted from numeric values determined from images obtained from results about the serum of 17 patients (patient Nos. P1-P17). […]
As to 6 (QKPY; epitope) [compound 6], the “epitope sequence grade for binding to IgE antibody” value (“epitope sequence grade for binding” for short) is “Key”.
As for 69 (HKVGKGEI; epitope) [compound 69], the “epitope sequence grade for binding” value is on record as “Preferably”.
In the case of 70 (HKVGKG; epitope) [compound 70], the “epitope sequence grade for binding” value was “Key”.
Still for that read-out and setting: the same measure for 84 (SKFYDDKNG; epitope) [compound 84]: “More preferably”.
The same measure, in the same setting: the same measure for 85 (SKFYDDKN; epitope) [compound 85]: “Preferably”; for 87 (YDDKNGYSSS; epitope) [compound 87]: “Further preferably”.
On to 88 (DDKNGYSSS; epitope) [compound 88], for which the “epitope sequence grade for binding” value is listed as “More preferably”.

Still in this assay, the particulars now being: serum of latex-allergic patient P2.
For 7 (DNFVIQKPYD; epitope) [compound 7], the “epitope sequence grade for binding” value is listed as “Preferably”.
On the same count and under the same terms, the same measure for 26 (DKPLN; epitope) [compound 26]: “Key”; for 91 (WSKFYDDK; epitope) [compound 91]: “Further preferably”; for 92 (KFYDDKNGYS; epitope) [compound 92]: “More preferably”.
As for 93 (KFYDDK; epitope) [compound 93], the “epitope sequence grade for binding” value is “Preferably”.
95 (DDKNGYSSS; epitope) [compound 95]: the “epitope sequence grade for binding” value is “More preferably”.

The same assay, now with this note: serum of latex-allergic patient P3.
36 (LKSYKSNSVA; epitope) [compound 36]: the “epitope sequence grade for binding” value is reported as “Most preferably”.
Same read-out and setting: to 37 (SYKSNSVATD; epitope) [compound 37] belongs “Further preferably”; to 38 (SYKSNSVA; epitope) [compound 38], “More preferably”; to 39 (SYKSNSV; epitope) [compound 39], “Preferably”.

The assay is the same for the next values; noted with them: serum of latex-allergic patient P4.
In the case of 41 (SYKSNSV; epitope) [compound 41], the “epitope sequence grade for binding” value is recorded as “More preferably”.
Still for that read-out and setting: the same measure for 98 (WSKFYDDK; epitope) [compound 98]: “More preferably”; for 99 (KFYDDKNGYS; epiotope) [compound 99]: “Preferably”; for 100 (KFYDDK; epitope) [compound 100]: “Key”.
Still for that read-out and setting: to 101 (DKNGYSSS; epitope) [compound 101] belongs “More preferably”.

The same assay, now with this note: serum of latex-allergic patient P5.
Take 44 (SYKSNS; epitope) [compound 44]: the “epitope sequence grade for binding” value is “Preferably”.
Same read-out and setting: the same measure for 71 (VNVIHKVGKG; epitope) [compound 71]: “More preferably”; for 74 (VIHKVGKGEI; epitope) [compound 74]: “Further preferably”; for 75 (HKVGKGEI; epitope) [compound 75]: “More preferably”.
With 104 (WSKFYDDK; epitope) [compound 104], the “epitope sequence grade for binding” value was “More preferably”.
Same read-out and setting: the same measure for 105 (SKFYDDK; epitope) [compound 105]: “Preferably”; for 106 (KFYDDK; epitope) [compound 106]: “Key”.

Still in this assay, the particulars now being: serum of latex-allergic patient P6.
Turning to 9 (EDNFVIQKPY; epitope) [compound 9], the “epitope sequence grade for binding” value is on record as “More preferably”.
The same measure, in the same setting: to 10 (QKPYDK; epitope) [compound 10] belongs “Preferably”; to 11 (QKPY; epitope) [compound 11], “Key”.
On the same count and under the same terms, the same measure for 27 (KPYDKP; epitope) [compound 27]: “Key”.
The same measure, in the same setting: the same measure for 28 (KPLNDRYS; epitope) [compound 28]: “Key”.

Still in this assay, the particulars now being: serum of latex-allergic patient P7.
As to 12 (QKPYD; epitope) [compound 12], the “epitope sequence grade for binding” value was “Preferably”.
The same measure, in the same setting: the same measure for 13 (QKPY; epitope) [compound 13]: “Key”.
The same measure, in the same setting: the same measure for 78 (KVGK; epitope) [compound 78]: “Key”.

The same assay, now with this note: serum of latex-allergic patient P8.
As for 14 (QKPYDK; epitope) [compound 14], the “epitope sequence grade for binding” value is recorded as “Preferably”.
Same read-out and setting: the same measure for 15 (QKPYD; epitope) [compound 15]: “Key”; for 46 (LKSYKSNSVA; epitope) [compound 46]: “Preferably”.
Still for that read-out and setting: to 47 (LKSYKSNSV; epitope) [compound 47] belongs “Key”; to 48 (KSNSVATDI; epitope) [compound 48], “Further preferably”.
On the same count and under the same terms, to 49 (KSNSVATD; epitope) [compound 49] belongs “More preferably”.

Staying with this assay, now noted: serum of latex-allergic patient P9.
As for 16 (QKPYDK; epitope) [compound 16], the “epitope sequence grade for binding” value is given as “Key”.
Still for that read-out and setting: the same measure for 29 (DKPLNDR; epitope) [compound 29]: “Key”.
Regarding 52 (LKSYK; epitope) [compound 52], the “epitope sequence grade for binding” value was “Key”.
On to 53 (KSNSVATDIY; epitope) [compound 53], for which the “epitope sequence grade for binding” value is reported as “Further preferably”.
On the same count and under the same terms, to 79 (KVGK; epitope) [compound 79] belongs “Key”.

Still in this assay, the particulars now being: serum of latex-allergic patient P12.
Regarding 17 (EDNFVIQKPY; epitope) [compound 17], the “epitope sequence grade for binding” value was “More preferably”.
On the same count and under the same terms, the same measure for 18 (QKPYDK; epitope) [compound 18]: “Preferably”.
As to 19 (QKPY; epitope) [compound 19], the “epitope sequence grade for binding” value was “Key”.
For the substance 57 (LKSYKSNSVA; epitope) [compound 57], the “epitope sequence grade for binding” value is “Most preferably”.
In the case of 58 (SYKSNSVATD; epitope) [compound 58], the “epitope sequence grade for binding” value is recorded as “Still further preferably”.
For 59 (SYKSNSVA; epitope) [compound 59], the “epitope sequence grade for binding” value is listed as “Further preferably”.
With 63 (VATDIY; epitope) [compound 63], the “epitope sequence grade for binding” value is recorded as “More preferably”.

The same assay, now with this note: serum of latex-allergic patient P13.
For the substance 20 (QKPYDK; epitope) [compound 20], the “epitope sequence grade for binding” value was “Key”.
Take 30 (KPLN; epitope) [compound 30]: the “epitope sequence grade for binding” value is reported as “Key”.
Same read-out and setting: the same measure for 66 (SYKSNS; epitope) [compound 66]: “Key”.

Staying with this assay, now noted: serum of latex-allergic patient P15.
On to 31 (DKPLND; epitope) [compound 31], for which the “epitope sequence grade for binding” value is reported as “Preferably”.
Still for that read-out and setting: to 32 (KPLN; epitope) [compound 32] belongs “Key”.

Staying with this assay, now noted: serum of latex-allergic patient P17.
In the case of 21 (FVIQKPYD; epitope) [compound 21], the “epitope sequence grade for binding” value is given as “Further preferably”.
Turning to 22 (QKPYDKPLN; epitope) [compound 22], the “epitope sequence grade for binding” value was “More preferably”.
On to 23 (QKPYD; epitope) [compound 23], for which the “epitope sequence grade for binding” value is “Preferably”.
Still for that read-out and setting: to 24 (QKPY; epitope) [compound 24] belongs “Key”; to 33 (KPYDKPLNDR; epitope) [compound 33], “Preferably”; to 34 (DKPLNDRYS; epitope) [compound 34], “Key”.
Still for that read-out and setting: the same measure for 67 (KSNSV; epitope) [compound 67]: “Key”.
Still for that read-out and setting: the same measure for 80 (KVGKGEITVF; epitope) [compound 80]: “More preferably”.
